In patent US20100098633A1, “SELECTIVE SEPRASE INHIBITORS” (Molecular Insight Pharmaceuticals, Inc., priority 2008, published 2010):

Target: T1, recombinant human seprase (rhFAP) (Homo sapiens, UniProt Q12884)
T1 sequence (Q12884 26-760 limits assumed): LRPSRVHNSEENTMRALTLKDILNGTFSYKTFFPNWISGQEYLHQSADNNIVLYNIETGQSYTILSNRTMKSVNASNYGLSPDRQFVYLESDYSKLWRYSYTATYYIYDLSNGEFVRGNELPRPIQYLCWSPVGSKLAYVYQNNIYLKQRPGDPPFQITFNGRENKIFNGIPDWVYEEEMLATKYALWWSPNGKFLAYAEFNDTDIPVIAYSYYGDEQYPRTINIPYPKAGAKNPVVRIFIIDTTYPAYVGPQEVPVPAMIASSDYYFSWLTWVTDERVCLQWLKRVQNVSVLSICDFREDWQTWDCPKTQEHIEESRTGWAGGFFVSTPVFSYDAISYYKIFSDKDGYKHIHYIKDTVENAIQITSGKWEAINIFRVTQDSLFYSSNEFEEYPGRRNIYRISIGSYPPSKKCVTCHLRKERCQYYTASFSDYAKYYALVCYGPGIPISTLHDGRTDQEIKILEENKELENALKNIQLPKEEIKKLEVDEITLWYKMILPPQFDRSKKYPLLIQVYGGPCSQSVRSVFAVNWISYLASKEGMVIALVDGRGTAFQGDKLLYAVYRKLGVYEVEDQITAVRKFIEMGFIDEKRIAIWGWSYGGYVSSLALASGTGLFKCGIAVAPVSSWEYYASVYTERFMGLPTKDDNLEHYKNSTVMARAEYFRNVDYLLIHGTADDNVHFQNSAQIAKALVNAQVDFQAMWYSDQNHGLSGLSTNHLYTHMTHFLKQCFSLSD
Assay: Inhibition of enzymatic activity of recombinant human seprase on Z-Gly-Pro-AMC (fluorescence)
Type: biochemical
Settings: for IC50: in vitro data against seprase, read-out: FAP (IC50 nM); for Percent of Control: initial velocity normalized to control without test compound, 50 μM Z-Gly-Pro-AMC
Method: In vitro assaying of compounds for inhibition of dipeptidyl peptidase activity of seprase and DPP-IV can be achieved following the described in Edosada C. Y. et al. J. Biolog. Chem. 2006, 281, 7437-7444.
Selected test compounds were examined for their ability to inhibit the enzymatic activity of recombinant human seprase (rhFAP) on the substrate, benzyloxycarbonyl-Gly-Pro-7-amido-4-methylcoumarin (Z-Gly-Pro-AMC). In brief, 10 μg rhFAP was added to 50 μM Z-Gly-Pro-AMC in the presence of increasing concentrations of test compound, and enzymatic activity was determined by monitoring fluorescence (Ex. 355 nm/Em. 460 nm). Compound 1051 is the known inhibitor, Cbz-Gly-boroproline. Initial velocity of the reaction was calculated and normalized to control reactions conducted in the absence of test compound.
The inhibition was measured by the half maximal inhibitory concentration (IC50) of a compound of interest. The IC50 indicates how much of a particular compound is needed to inhibit seprase by half.

IC50 [nM]	Percent of Control (inhibitor 0.005 μM) [%]	Percent of Control (inhibitor 0.05 μM) [%]	Percent of Control (inhibitor 0.5 μM) [%]	Percent of Control (inhibitor 5 μM) [%]	Percent of Control (inhibitor 50 μM) [%]	Percent of Control (inhibitor 500 μM) [%]	Substance
2540	90	95	82	26	0	0	Re(CO)3[1-(6-(bis(pyridin-2-ylmethyl)amino)hexanoyl)pyrrolidin-2-ylboronic acid] [Compound 1010]
3530							Re(CO)3[2-((6-(2-(2-boronopyrrolidin-1-yl)-2-oxoethylamino)-6-oxohexyl)(pyridin-2-ylmethyl)amino)acetic acid] [Compound 1016]
